Earlier results, collected in patent publication US20140044784A1, “COMBINED FORMULATION WITH IMPROVED STABILITY” (BORYUNG PHARMACEUTICAL CO., LTD, priority 2011, published 2014).

Conditions: daily administration of a low dose (about 80 mg)

CC(=O)Oc1ccccc1C(=O)O [aspirin, acetylsalicylic acid]
Reduction of heart attack, stroke, and cardiovascular mortalities: at least 25%
